Converted amounts (≈) assume the structure as drawn.
Columns and labels:
[1] = test system: Bacillus subtilis KY4273; assay: Antibacterial activity, regular agar dilution, Bacillus subtilis KY4273; assay type: cell-based; conditions: pH 7.0
Experimental: (§1) The antibacterial activity of (±)-cis-2-carboxy-7-[2-(thiophene-2-yl)acetylamino]-1-azabicyclo[4,2,0]oct-2-en-8-one obtained in Example 21 above is set forth below. The activity is determined by the regular agar dilution at pH 7.0.

[2] = test system: Escherichia coli KY4271; assay: Antibacterial activity, regular agar dilution, Escherichia coli KY4271; assay type: cell-based; conditions: pH 7.0
Experimental: as §1

[3] = test system: Klebsiella penumoniae KY4275; assay: Antibacterial activity, regular agar dilution, Klebsiella penumoniae KY4275; assay type: cell-based; conditions: pH 7.0
Experimental: as §1

[4] = test system: Proteus vulgaris KY4277; assay: Antibacterial activity, regular agar dilution, Proteus vulgaris KY4277; assay type: cell-based; conditions: pH 7.0
Experimental: as §1

[5] = test system: Shigella sonnei KY4281; assay: Antibacterial activity, regular agar dilution, Shigella sonnei KY4281; assay type: cell-based; conditions: pH 7.0
Experimental: as §1

[6] = test system: Vibrio percolans KY4174; assay: Antibacterial activity, regular agar dilution, Vibrio percolans KY4174; assay type: cell-based; conditions: Comamonas terrigena, pH 7.0
Experimental: as §1

[7] = test system: Staphylococcus aureus KY4279; assay: Antibacterial activity, regular agar dilution, Staphylococcus aureus KY4279; assay type: cell-based; conditions: pH 7.0
Experimental: as §1

[8] = test system: Erwinia aroides KY3241; assay: Antibacterial activity, regular agar dilution, Erwinia aroides KY3241; assay type: cell-based; conditions: pH 7.0
Experimental: as §1

[9] = test system: Salmonella typhosa KY4278; assay: Antibacterial activity, regular agar dilution, Salmonella typhosa KY4278; assay type: cell-based; conditions: Salmonella enterica, pH 7
Experimental: as §1

[10] = J. Am. Chem. Soc. 96, 7584 (1974); J. Med. Chem. 20, 551; cited from earlier work

Row | Structure (SMILES) | MIC [1] | MIC [2] | MIC [3] | MIC [4] | MIC [5] | MIC [6] | MIC [7] | MIC [8] | MIC [9] | antibacterial activity (in words) [10]
1 | O=C(Cc1cccs1)NC1C(=O)N2C(C(=O)O)=CCCC12 (stereo not drawn) [Example 21, (±)-cis-2-carboxy-7-[2-(thiophene-2-yl)acetylamino]-1-azabicyclo[4,2,0]oct-2-en-8-one] | 2 µg/mL (≈ 6.53 µM) | 8 µg/mL (≈ 26.1 µM) | 4 µg/mL (≈ 13.1 µM) | 8 µg/mL (≈ 26.1 µM) | 8 µg/mL (≈ 26.1 µM) | 2 µg/mL (≈ 6.53 µM) | 1 µg/mL (≈ 3.26 µM) | 1 µg/mL (≈ 3.26 µM) | 1 µg/mL (≈ 3.26 µM) | 
2 | CC(=O)OCC1=C(C(=O)O)N2C(=O)C(NC(=O)Cc3cccs3)C2CC1 (racemic) [(±)-1-carbacephalotin] |  |  |  |  |  |  |  |  |  | having antibacterial activity

From patent US4291164A, “Cephalosporin analogs and methods for production thereof” (Kyowa Hakko Kogyo Co., Ltd., priority 1978, dated 1981)
